In paper PMC4864350, “Fluorogenic Substrates for In Situ Monitoring of Caspase-3 Activity in Live Cells” (PLoS ONE, 2016):
*: point of attachment. MethylRed = CN(C)c1ccc(/N=N/c2ccccc2C(=O)*)cc1; FAM = 5(6)-carboxyfluorescein; peptoid = not defined here; Ahx = NCCCCCC(=O)O

Experiments:
caspase-7 = biological target: T1, caspase-7 (Homo sapiens, UniProt P55210); assay: Caspase-7-mediated cleavage at high enzyme concentration analysed by MALDI-TOF MS; assay type: biochemical; conditions: 10–20 μM substrate, 0.4 μM enzyme, 2 h, 37 °C
T1 construct: purchased R&D systems, USA
T1 sequence (P55210 24-198 limits assumed): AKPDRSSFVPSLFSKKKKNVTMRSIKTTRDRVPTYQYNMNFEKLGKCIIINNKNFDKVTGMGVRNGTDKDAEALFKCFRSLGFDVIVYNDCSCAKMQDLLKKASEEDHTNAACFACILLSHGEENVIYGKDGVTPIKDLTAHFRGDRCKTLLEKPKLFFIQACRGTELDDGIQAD
T1 sequence (P55210 207-303 limits assumed): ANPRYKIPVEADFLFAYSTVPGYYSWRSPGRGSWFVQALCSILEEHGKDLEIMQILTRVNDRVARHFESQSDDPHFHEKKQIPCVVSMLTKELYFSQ
Method: To confirm how specific 11, 12 and 14 were for caspase-3, these substrates were incubated with high enzyme concentrations (10–20 μM substrate, 0.4 μM enzyme) and the caspase-mediated cleavage analysed by MALDI-TOF MS.
S2 Fig. (A) MALDI-TOF MS spectra of substrate 11 (sequence Asp-Ala-Pro-Asp). (B) After incubation (20 µM) with Caspase-3 for 2 h. (C) After incubation (20 µM) with Caspase-7 for 2 h (detected as the PBS adduct.)
Caspase-3 or caspase-7 (R&D systems, USA) was added to 100 µL of caspase assay buffer (final enzyme concentration 0.4 µM) with the substrates at 10–20 µM. The samples were incubated in Eppendorf Thermomixer® Comfort shaking at 1200 rpm for 2h at 37 °C. MALDI -TOF mass spectra were recorded as described in Table S1 .
(§1) (1 picture or pasted object on this page, not shown here)

MCF-7 cells = assay: Confocal imaging of staurosporine-treated cells lacking functional caspase-3; assay type: cell-based; conditions: cells lack functional caspase-3 but express caspase-7
Method: (§2) Fig 5 Confocal microscopy images of HEK293T and MCF-7 cells treated with substrate 27. Confocal microscopy images (objective HCX PL APO ×63/1.40–0.6 Oil CS) of HEK273T cells with substrate 27 (10 μM) without staurosporine (STS) (A) and with staurosporine (1 μM) (B) induced apoptosis (green fluorescence is from fluorescein “turned on” by caspase-3 cleavage of the substrate, blue is DAPI nuclear stain). (C) Staurosporine treated MCF-7 cells with substrate 27.
(§3) Cell culture was performed in a Heracell 150 incubator (Heraeus) and in a Herasafe KS 18 class II negative-flow cabinet (Heraeus). […] Fluorescence was evaluated as mean fluorescence intensity (MFI) and estimated <100 u.a. for untreated control cells (consistent values independently of staurosporine addition). Apoptotic cells treated with substrate 1 were used as a positive control to obtain the maximum of fluorescence signal. […] The data were analysed using the software Flowjo® 7.5.
(§4) For confocal microscopy, the cells were fixed with 4% paraformaldehyde in PBS and the nuclei stained with Hoechst-33342 (1% w/v in PBS). Cellular fluorescence of cells was analysed using an Inverted Leica DM IRB with filter I3 (450–490 nm) and a Leica SP5 Confocal (FITC and DAPI channel).

HEK293T cells [1] = assay: Flow cytometry detection of caspase-3 activity in live cells; assay type: cell-based; conditions: 27 at 10 μM, 5 h
Method: Fig 4 Flow cytometry analysis of healthy and apoptotic HEK293T cells treated with substrate 27. The cells were incubated 5 h with fluorogenic substrate 27 (10 μM), detached, and analysed by flow cytometry (λEx/Em 488/530 nm, x-axis = fluorescence intensity). (A) Healthy, non-apoptotic cells. (B) Apoptotic cells (induced by 1 μM staurosporine). TEXT PRINTED IN THE PICTURE: (A) no label printed: FITC - 92.7%; FITC + 7.28% | (B) no label printed: FITC - 1.57%; FITC + 98.4% […]
Cell culture was performed in a Heracell 150 incubator (Heraeus) and in a Herasafe KS 18 class II negative-flow cabinet (Heraeus). HEK293T and MCF-7 cells (cultured in high glucose (4.5 mg/mL) DMEM supplemented with 4 mM glutamine, 100 units/mL penicillin, 10 mg/mL streptomycin and 25 mg/mL amphotericin B, and 10% FBS) were seeded onto a 48-well plate at a density of 10^4 cells per well. After 12 hours, the media was removed and substrates 1–14 added at 10 μM in fresh media. Selected wells were also treated with staurosporine (1 μM). After 5 hours, the cells were washed twice with PBS, detached with trypsin/EDTA, harvested with 2% FBS in PBS supplemented with Trypan Blue (0.04%) for analysis on a BD FACSAria® flow cytometer. Fluorescence was evaluated as mean fluorescence intensity (MFI) and estimated <100 u.a. for untreated control cells (consistent values independently of staurosporine addition). Apoptotic cells treated with substrate 1 were used as a positive control to obtain the maximum of fluorescence signal. 50,000 events per sample were plotted in two-dimensional dot plots based on forward and side scattering. The cellular size and complexity (SSC-H vs. FSC-H) were used to gate two populations (alive/apoptotic cells) (debri excluded). The data were analysed using the software Flowjo® 7.5.
Quantification of caspase-3 in apoptotic cells by flow cytometry
Localisation of apoptotic cells by flow cytometry. Flow cytometry analysis of morphology (SSC-A) and size (FSC-A) of HEK293T cells without (left image) and with (right image) treatment with 1 µM staurosporine for 4 h.
Calculation of active caspase-3 concentration inside cells
Substrate 27 was used to quantify caspase-3 per cell.1
1. Calculate FAM-Ahx-Leu-Pro-Asp released per cell:
Fluorescein-labelled microspheres (0.5% SC, ≈ 2 mmol/g),2 were used to generate the standard curve for fluorescence intensity versus amount of the fluorophore (nmol) by flow cytometry (see below).
Kossler, S.; Nofziger, C.; Jakab, M.; Dossena, S.; Paulmichl, M. Toxicology, 2012, 292, 123-135.
2 a) A. uncit-Broceta, E.M.V. Johansson, R.M. Yusop, R.M. Sanchez-Martin and M. Bradley, Nat.
Protocol, 2012, 7, 1207-1218. b) J.M. Cardenas-Maestre and R.M. Sanchez-Martin, Org. Biomol. Chem., […]
as §1
FAM standard curve to determine conversion factor (7x109 MFI/nmol) representing FI (Fluorescence Intensity) versus FAM quantity (nmol).
To determine the concentration of FAM-Ahx-Leu-Pro-Asp released per cell (nmol/cell) = [FI/cell – FI0/cell]/7x109 FI/nmol
Assuming 20 µm cell diameter and 2/3 of that for the nucleus, the cytoplasmic volume of HEK293T cell is 3 pl (VC).1,3
FAM-Ahx-Leu-Pro-Asp released per cell (M) = FAM-Ahx-Leu-Pro-Asp released per […]
2. Calculate the rate of product formation V0 with 5 h staurosporine treatment:
V0 = d[P]/dt = FAM-Ahx-Leu-Pro-Asp released per cell (mM)/18000 sec
3. Quantify the concentration of the enzyme per cell at high substrate concentrations (enzyme saturation) […]
kcat = 0.04 s-1 (sensor 27 DLPDK)
[E] = enzyme concentration per cell (nM)
[Caspase-3] = 15.65 ± 0.46 nM (1.3 ng active caspase 3 per 106 apoptotic staurosporine- […]
3 Y. Liu, X. Yan and T. Zhou, PLOS one, 2013, 8, 8.
4. Quantify the number of molecules per cell of caspase-3
NoE (number of enzyme molecules per cell) = [E]xVCxNA […]

HEK293T cells [2] = assay: Live-cell confocal imaging of caspase-3 activation; assay type: cell-based; conditions: 27 at 10 μM
Method: as §2, §3, §4

[3] = apoptosis induced by 1 μM staurosporine (Fig 4B)

cleavage by caspase-7 (MALDI-TOF MS) (caspase-7): did not show any cleavage
Substance: substrate 27: FAM-Ahx-Asp-Leu-Pro-Asp-Lys(MR)-Ahx, conjugated to the cell penetrating peptoid at the C-terminus ({FAM-Ahx}-DLPDK(MethylRed)-{Ahx-peptoid}; reading uncertain; also: printed as FAM-Ahx-Asp-Leu-Pro-Asp-Lys(MR)-Ahx)
fluorescence turn-on in apoptotic MCF-7 cells (confocal) (MCF-7 cells): No fluorescence “turn-on” was observed
FITC + cells, apoptotic (HEK293T cells [1]; [3]): 98.4%
FITC - cells, apoptotic (HEK293T cells [1]; [3]): 1.57%
increase in fluorescence without staurosporine (HEK293T cells [1]; no staurosporine, flow cytometry): no increase observed
FITC + cells, healthy (HEK293T cells [1]; non-apoptotic cells (Fig 4A)): 7.28%
FITC - cells, healthy (HEK293T cells [1]; non-apoptotic cells (Fig 4A)): 92.7%
increase in the fluorescence intensity of the cells after apoptotic stimulation (HEK293T cells [1]; staurosporine 1 μM, flow cytometry λEx/Em 488/530 nm): 2.5 fold
fluorescence turn-on in apoptotic cells (confocal) (HEK293T cells [2]; staurosporine 1 μM): only detected in the cytoplasm of apoptotic HEK293T cells
fluorescence in non-apoptotic cells (confocal) (HEK293T cells [2]; without staurosporine): no increase in fluorescence observed
